Columns and labels:
P. aeruginosa HemO = molecular target: T1, P. aeruginosa HemO (Pseudomonas aeruginosa, UniProt O69002); conditions: read-out: binding affinity for HemO; previous work; cited from earlier work
T1 sequence (O69002 1-198): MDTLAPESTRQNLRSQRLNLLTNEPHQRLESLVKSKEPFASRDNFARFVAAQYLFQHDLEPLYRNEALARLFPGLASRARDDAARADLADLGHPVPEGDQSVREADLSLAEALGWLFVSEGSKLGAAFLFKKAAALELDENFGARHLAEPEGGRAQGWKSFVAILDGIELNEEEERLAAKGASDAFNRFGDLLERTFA

P. aeruginosa = conditions: previous work; cited from earlier work
[1] = system: Caenorhabditis elegans infection model; conditions: previous work; cited from earlier work
HemO = HemO (Pseudomonas aeruginosa, UniProt O69002); test: STD NMR binding epitope; conditions: relative to the strongest interacting proton

For `CN(C)c1ccc(/C=N/NC(=N)N)cc1.Cl` [Compound 1, (E)-2-(4-(Dimethylamino)benzylidene)hydrazine-carboximidamide Hydrochloride], the Kd (P. aeruginosa HemO) is given as 31.2 µM, the “MIC50 against P. aeruginosa” value (P. aeruginosa) is given as 250 µg/mL and the “curing activity in Caenorhabditis elegans infection model” value [1] is given as “exhibited curing activity”.
With `Cl.NC(N)=N/N=C/c1cccc(OCc2ccccc2)c1` [Compound 24, (E)-2-(3-(Benzyloxy)benzylidene)hydrazinecarboximidamide Hydrochloride] the “relative STD interaction of the benzylimine proton” value (HemO) was 100% and the “relative STD interaction of the para-position proton” value (HemO) was 82%.

Source: paper PMC5080841 (Journal of medicinal chemistry, 2016)
